Measured values published in patent US11566057B2, “Long-acting co-agonists of the glucagon and GLP-1 receptors” (Merck Sharp & Dohme Corp., priority 2017, dated 2023).
Where two headings read alike, the source gives them in different places. Numbered stars: 1 amine (or outer) side, 2 acyl side, 3 side chain; on linkers, the order of the positions; unused ones are H or OH. Square brackets hold non-standard residues; d marks the D form. Side chains are listed from the residue outwards. Peptide text beside a SMILES is read from it. * marks the point of attachment. C18 diacid = O=C(O)CCCCCCCCCCCCCCCCC(=O)*; γGlu = O=C(O)[C@H](CCC(=O)[*:2])N[*:1]; Met(O2) = CS(=O)(=O)CC[C@H](N)C(=O)O; αMeD = C[C@](N)(CC(=O)O)C(=O)O; αMeS = C[C@](N)(CO)C(=O)O; AEEA = NCCOCCOCC(=O)O; Aib = CC(C)(N)C(=O)O

Legend:
[1] = target: T1, human GLP1R (Homo sapiens, UniProt P43220); test: cAMP activity assay at the GLP-1 receptor (GLP1R); type: cell-based
T1 construct: expressed in transfected cells; growth medium holds Blasticidin and Hygromycin
T1 sequence (P43220 24-463): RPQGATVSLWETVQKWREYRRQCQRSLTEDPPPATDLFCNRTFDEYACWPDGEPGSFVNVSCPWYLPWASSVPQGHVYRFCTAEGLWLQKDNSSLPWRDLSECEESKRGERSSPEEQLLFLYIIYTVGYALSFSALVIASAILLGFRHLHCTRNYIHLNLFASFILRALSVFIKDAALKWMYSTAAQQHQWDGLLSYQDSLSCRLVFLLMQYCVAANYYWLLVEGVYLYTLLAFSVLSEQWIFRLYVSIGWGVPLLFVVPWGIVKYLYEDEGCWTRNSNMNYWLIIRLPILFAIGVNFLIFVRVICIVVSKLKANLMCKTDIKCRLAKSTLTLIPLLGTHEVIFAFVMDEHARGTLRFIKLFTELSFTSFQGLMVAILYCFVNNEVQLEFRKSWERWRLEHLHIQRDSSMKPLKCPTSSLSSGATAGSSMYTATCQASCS
Procedure, shortened: (§1)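 Peptides serially diluted from DMSO (10 points) and added to frozen-stock cells bearing human GLP1R (10,000 cells/well) or GCGR (30,000 cells/well), 1 h at RT, dark. EC50 by four-parameter logistic fit of HitHunter cAMPXS luminescence, read following overnight RT incubation.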

[2] = target: T2, human GCGR (Homo sapiens, UniProt P47871); test: cAMP activity assay at the Glucagon receptor (GCGR); type: cell-based; details: for hGCGR/hGLP1R (hTone): ratio of GCGR EC50 to GLP1R EC50
T2 construct: expressed in transfected cells; growth medium holds Blasticidin and Hygromycin
T2 sequence (P47871 26-477): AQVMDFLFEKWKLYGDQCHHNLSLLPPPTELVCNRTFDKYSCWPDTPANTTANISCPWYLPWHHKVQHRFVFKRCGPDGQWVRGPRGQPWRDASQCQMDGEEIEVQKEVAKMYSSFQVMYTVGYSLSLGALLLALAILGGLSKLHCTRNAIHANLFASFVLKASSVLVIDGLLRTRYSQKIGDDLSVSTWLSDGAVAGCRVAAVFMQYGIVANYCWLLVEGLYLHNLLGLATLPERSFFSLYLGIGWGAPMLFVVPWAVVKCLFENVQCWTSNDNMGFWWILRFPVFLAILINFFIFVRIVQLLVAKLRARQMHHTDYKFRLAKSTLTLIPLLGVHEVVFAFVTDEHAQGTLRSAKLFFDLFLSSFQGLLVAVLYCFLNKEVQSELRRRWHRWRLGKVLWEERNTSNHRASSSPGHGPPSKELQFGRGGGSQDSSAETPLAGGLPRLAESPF
Procedure, shortened: as §1

[3] = cells expressing human GLP1R, cAMP production, buffer with or without 20% human serum (not stated which), read-out: GLP1R EC50 human
[4] = summary statement: EC50 at each of the glucagon and GLP-1 receptors, read-out: EC50 at the GLP-1 receptor
[5] = summary statement: EC50 at each of the glucagon and GLP-1 receptors, read-out: EC50 at the glucagon receptor
[6] = cells expressing human GCGR, cAMP production, buffer with or without 20% human serum (not stated which), read-out: GCGR EC50 human

Row | Compound | EC50 [1, 3] | EC50 [1, 4] | hGCGR/hGLP1R (hTone) [2] | EC50 [2, 5] | EC50 [2, 6]
1 | CC(C)C[C@H](NC(=O)[C@H](Cc1c[nH]c2ccccc12)NC(=O)[C@H](CCC(N)=O)NC(=O)[C@@H](NC(=O)[C@H](Cc1ccccc1)NC(=O)[C@](C)(CC(=O)O)NC(=O)[C@H](CCCCNC(=O)COCCOCCNC(=O)COCCOCCNC(=O)CC[C@H](NC(=O)CCCCCCCCCCCCCCCCC(=O)O)C(=O)O)NC(=O)[C@H](C)NC(=O)[C@H](C)NC(=O)[C@H](CCCNC(=N)N)NC(=O)[C@H](C)NC(=O)[C@](C)(CC(=O)O)NC(=O)[C@H](CC(C)C)NC(=O)[C@H](Cc1ccc(O)cc1)NC(=O)[C@H](CCCCN)NC(=O)[C@H](CO)NC(=O)[C@H](Cc1ccc(O)cc1)NC(=O)[C@H](CC(=O)O)NC(=O)[C@H](CO)NC(=O)[C@@H](NC(=O)[C@H](Cc1ccccc1)NC(=O)[C@@H](NC(=O)CNC(=O)[C@H](CCC(N)=O)NC(=O)C(C)(C)NC(=O)[C@@H](N)Cc1c[nH]cn1)[C@@H](C)O)[C@@H](C)O)C(C)C)C(=O)N[C@@H](CCS(C)(=O)=O)C(=O)N[C@@](C)(CC(=O)O)C(=O)N[C@H](C(N)=O)[C@@H](C)O [TP612] (H-H[Aib]QGTFTSDYSKYL[αMeD]ARAAK([AEEA-AEEA-γGlu-C18 diacid])[αMeD]FVQWL[Met(O2)][αMeD]T-NH2; N-terminus assumed) | 4.95 nM | < 5 nM | <0.41 | < 5 nM | –
2 | CC(C)C[C@H](NC(=O)[C@H](Cc1ccc(O)cc1)NC(=O)[C@H](CCCCN)NC(=O)[C@H](CO)NC(=O)[C@H](Cc1ccc(O)cc1)NC(=O)[C@H](CC(=O)O)NC(=O)[C@H](CO)NC(=O)[C@@H](NC(=O)[C@H](Cc1ccccc1)NC(=O)[C@@H](NC(=O)CNC(=O)[C@H](CCC(N)=O)NC(=O)C(C)(C)NC(=O)[C@@H](N)Cc1c[nH]cn1)[C@@H](C)O)[C@@H](C)O)C(=O)N[C@@H](CC(=O)O)C(=O)N[C@@H](CCC(=O)O)C(=O)N[C@@H](CCCNC(=N)N)C(=O)N[C@@H](C)C(=O)N[C@@H](C)C(=O)N[C@@H](CCCCN)C(=O)N[C@@H](CC(=O)O)C(=O)N[C@@H](Cc1ccccc1)C(=O)N[C@H](C(=O)N[C@@H](CCCCNC(=O)COCCOCCNC(=O)COCCOCCNC(=O)CC[C@H](NC(=O)CCCCCCCCCCCCCCCCC(=O)O)C(=O)O)C(=O)N[C@@H](Cc1c[nH]c2ccccc12)C(=O)N[C@@H](CC(C)C)C(=O)N[C@@H](CCS(C)(=O)=O)C(=O)N[C@@H](CC(=O)O)C(=O)N[C@H](C(N)=O)[C@@H](C)O)C(C)C [TP701] (H-H[Aib]QGTFTSDYSKYLDERAAKDFVK([AEEA-AEEA-γGlu-C18 diacid])WL[Met(O2)]DT-NH2) | 0.18 nM | – | – | – | > 4.9 nM
3 | CC(C)C[C@H](NC(=O)[C@H](Cc1ccc(O)cc1)NC(=O)[C@H](CCCCN)NC(=O)[C@H](CO)NC(=O)[C@H](Cc1ccc(O)cc1)NC(=O)[C@H](CC(=O)O)NC(=O)[C@H](CO)NC(=O)[C@@H](NC(=O)[C@H](Cc1ccccc1)NC(=O)[C@@H](NC(=O)CNC(=O)[C@H](CCC(N)=O)NC(=O)[C@](C)(CO)NC(=O)[C@@H](N)Cc1c[nH]cn1)[C@@H](C)O)[C@@H](C)O)C(=O)N[C@@H](CC(=O)O)C(=O)N[C@@H](C)C(=O)N[C@@H](CCCNC(=N)N)C(=O)N[C@@H](C)C(=O)N[C@@H](C)C(=O)N[C@@H](CCC(N)=O)C(=O)N[C@@H](CCCCNC(=O)COCCOCCNC(=O)COCCOCCNC(=O)CC[C@H](NC(=O)CCCCCCCCCCCCCCCCC(=O)O)C(=O)O)C(=O)N[C@@H](Cc1ccccc1)C(=O)N[C@H](C(=O)N[C@@H](CCC(N)=O)C(=O)N[C@@H](Cc1c[nH]c2ccccc12)C(=O)N[C@@H](CC(C)C)C(=O)N[C@@H](CCS(C)(=O)=O)C(=O)N[C@@](C)(CC(=O)O)C(=O)N[C@H](C(N)=O)[C@@H](C)O)C(C)C [TP617] (H-H[αMeS]QGTFTSDYSKYLDARAAQK([AEEA-AEEA-γGlu-C18 diacid])FVQWL[Met(O2)][αMeD]T-NH2) | 0.76 nM | < 5 nM | 0.8 | < 5 nM | –
4 | CC(C)C[C@H](NC(=O)[C@H](Cc1ccc(O)cc1)NC(=O)[C@H](CCCCN)NC(=O)[C@H](CO)NC(=O)[C@H](Cc1ccc(O)cc1)NC(=O)[C@H](CC(=O)O)NC(=O)[C@H](CO)NC(=O)[C@@H](NC(=O)[C@H](Cc1ccccc1)NC(=O)[C@@H](NC(=O)CNC(=O)[C@H](CCC(N)=O)NC(=O)C(C)(C)NC(=O)[C@@H](N)Cc1c[nH]cn1)[C@@H](C)O)[C@@H](C)O)C(=O)N[C@@H](CC(=O)O)C(=O)N[C@@H](C)C(=O)N[C@@H](CCCNC(=N)N)C(=O)N[C@@H](C)C(=O)N[C@@H](C)C(=O)N[C@@H](CCCCNC(=O)COCCOCCNC(=O)COCCOCCNC(=O)CC[C@H](NC(=O)CCCCCCCCCCCCCCCCC(=O)O)C(=O)O)C(=O)N[C@@H](CC(=O)O)C(=O)N[C@@H](Cc1ccccc1)C(=O)N[C@H](C(=O)N[C@@H](CCC(N)=O)C(=O)N[C@@H](Cc1c[nH]c2ccccc12)C(=O)N[C@@H](CC(C)C)C(=O)N[C@@H](CCS(C)(=O)=O)C(=O)N[C@@H](CCC(=O)O)C(=O)N[C@H](C(N)=O)[C@@H](C)O)C(C)C [TP672] (H-H[Aib]QGTFTSDYSKYLDARAAK([AEEA-AEEA-γGlu-C18 diacid])DFVQWL[Met(O2)]ET-NH2; N-terminus assumed) | – | < 5 nM | 0.7 | < 5 nM | 0.35 nM
5 | CC(C)C[C@H](NC(=O)[C@H](C)NC(=O)[C@H](CC(=O)O)NC(=O)[C@H](CC(C)C)NC(=O)[C@H](Cc1ccc(O)cc1)NC(=O)[C@H](CCCCN)NC(=O)[C@H](CO)NC(=O)[C@H](Cc1ccc(O)cc1)NC(=O)[C@H](CC(=O)O)NC(=O)[C@H](CO)NC(=O)[C@@H](NC(=O)[C@H](Cc1ccccc1)NC(=O)[C@@H](NC(=O)CNC(=O)[C@H](CCC(N)=O)NC(=O)C(C)(C)NC(=O)[C@@H](N)Cc1c[nH]cn1)[C@@H](C)O)[C@@H](C)O)C(=O)N[C@@H](C)C(=O)N[C@@H](C)C(=O)N[C@@H](CCCCNC(=O)COCCOCCNC(=O)COCCOCCNC(=O)CC[C@H](NC(=O)CCCCCCCCCCCCCCCCC(=O)O)C(=O)O)C(=O)N[C@@H](CC(=O)O)C(=O)N[C@@H](Cc1ccccc1)C(=O)N[C@H](C(=O)N[C@@H](CCC(N)=O)C(=O)N[C@@H](Cc1c[nH]c2ccccc12)C(=O)N[C@@H](CC(C)C)C(=O)N[C@@H](CCS(C)(=O)=O)C(=O)N[C@@H](CC(=O)O)C(=O)N[C@H](C(N)=O)[C@@H](C)O)C(C)C [TP599] (H-H[Aib]QGTFTSDYSKYLDALAAK([AEEA-AEEA-γGlu-C18 diacid])DFVQWL[Met(O2)]DT-NH2; N-terminus assumed) | – | < 5 nM | 1.6 | < 5 nM | –
6 | CC(C)C[C@H](NC(=O)[C@H](Cc1c[nH]c2ccccc12)NC(=O)[C@H](CCCCNC(=O)COCCOCCNC(=O)COCCOCCNC(=O)CC[C@H](NC(=O)CCCCCCCCCCCCCCCCC(=O)O)C(=O)O)NC(=O)[C@@H](NC(=O)[C@H](Cc1ccccc1)NC(=O)[C@H](CC(=O)O)NC(=O)[C@H](CCC(N)=O)NC(=O)[C@H](C)NC(=O)[C@H](C)NC(=O)[C@H](CCCNC(=N)N)NC(=O)C(C)(C)NC(=O)[C@H](CC(=O)O)NC(=O)[C@H](CC(C)C)NC(=O)[C@H](Cc1ccc(O)cc1)NC(=O)[C@H](CCCCN)NC(=O)[C@H](CO)NC(=O)[C@H](Cc1ccc(O)cc1)NC(=O)[C@H](CC(=O)O)NC(=O)[C@H](CO)NC(=O)[C@@H](NC(=O)[C@H](Cc1ccccc1)NC(=O)[C@@H](NC(=O)CNC(=O)[C@H](CCC(N)=O)NC(=O)C(C)(C)NC(=O)[C@@H](N)Cc1c[nH]cn1)[C@@H](C)O)[C@@H](C)O)C(C)C)C(=O)N[C@@H](CCS(C)(=O)=O)C(=O)N[C@@H](CC(=O)O)C(=O)N[C@H](C(=O)O)[C@@H](C)O [TP737] (H-H[Aib]QGTFTSDYSKYLD[Aib]RAAQDFVK([AEEA-AEEA-γGlu-C18 diacid])WL[Met(O2)]DT-OH; N-terminus assumed) | – | < 5 nM | 0.6 | < 5 nM | –
